Measured values taken from patent US20250271426A1, “REDUCTION OF BITTER TASTE OF ACTIVE PHARMACEUTICAL INGREDIENTS AND RELATED ASSAYS AND SCREENING METHODS” (Firmenich Incorporated, priority 2022, published 2025).

Key:
Experiment in all cases: FLIPR calcium assay, cells with promiscuous G protein transfected with bitter receptor cDNA
Format in all cases: cell-based
Settings in all cases: responsive if cellular response of >10% over baseline, Fluo4-AM
[1] = biological target: T1, T2R receptor SEQ ID NO: 5 (S5) (Homo sapiens, UniProt P59534)
T1 construct: expressed in transfected cells; host or cells: cells expressing a promiscuous G protein (e.g., G16g44)
T1 sequence (P59534 18-338): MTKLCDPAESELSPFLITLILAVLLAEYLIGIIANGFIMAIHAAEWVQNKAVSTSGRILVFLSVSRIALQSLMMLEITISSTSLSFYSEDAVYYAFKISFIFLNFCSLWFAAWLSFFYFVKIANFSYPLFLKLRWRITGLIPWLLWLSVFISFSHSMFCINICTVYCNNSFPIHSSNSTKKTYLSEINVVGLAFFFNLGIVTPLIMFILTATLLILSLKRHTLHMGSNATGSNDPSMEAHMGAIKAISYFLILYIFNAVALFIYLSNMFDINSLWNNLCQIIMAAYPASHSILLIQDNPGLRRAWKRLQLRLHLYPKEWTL
Protocol: (§1) Cells expressing a promiscuous G protein (e.g., G16g44) were transfected with vectors encoding 22 functional bitter receptor cDNAs, with one receptor per transfection. The cells were transfected directly in 384-well format high-density plates and incubated for 28 hours. Later, cells were loaded with the Ca-specific dye Fluo4-AM. After an incubation of 60 minutes, excess dye is washed off, and cells are stimulated with respective bitter agonists while simultaneously recording changes in intracellular fluorescence using a FLIPR instrument.
(§2) The above protocol was carried out using 94 different active pharmaceutical ingredients (APIs) that span a wide range of different APIs having a diversity of chemical structures. A particular T2R receptor was identified as being responsive to a particular API if it triggered a cellular response of >10% over baseline.

[2] = biological target: T2, T2R receptor SEQ ID NO: 3 (S3) (Homo sapiens, UniProt Q9NYW0, T156M)
T2 construct: expressed in transfected cells; host or cells: cells expressing a promiscuous G protein (e.g., G16g44)
T2 sequence (Q9NYW0 1-307 T156M): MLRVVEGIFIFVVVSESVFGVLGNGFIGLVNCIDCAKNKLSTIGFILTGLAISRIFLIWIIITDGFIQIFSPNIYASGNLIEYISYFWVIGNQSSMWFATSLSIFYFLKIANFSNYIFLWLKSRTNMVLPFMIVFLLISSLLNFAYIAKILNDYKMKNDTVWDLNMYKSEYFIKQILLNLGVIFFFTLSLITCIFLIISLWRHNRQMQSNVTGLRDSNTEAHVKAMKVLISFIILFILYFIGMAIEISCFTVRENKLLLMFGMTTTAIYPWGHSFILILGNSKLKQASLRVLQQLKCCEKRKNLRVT
Protocol: as §1, §2

[3] = biological target: T3, T2R receptor SEQ ID NO: 6 (S6) (Homo sapiens, UniProt P59540)
T3 construct: expressed in transfected cells; host or cells: cells expressing a promiscuous G protein (e.g., G16g44)
T3 sequence (P59540 1-309): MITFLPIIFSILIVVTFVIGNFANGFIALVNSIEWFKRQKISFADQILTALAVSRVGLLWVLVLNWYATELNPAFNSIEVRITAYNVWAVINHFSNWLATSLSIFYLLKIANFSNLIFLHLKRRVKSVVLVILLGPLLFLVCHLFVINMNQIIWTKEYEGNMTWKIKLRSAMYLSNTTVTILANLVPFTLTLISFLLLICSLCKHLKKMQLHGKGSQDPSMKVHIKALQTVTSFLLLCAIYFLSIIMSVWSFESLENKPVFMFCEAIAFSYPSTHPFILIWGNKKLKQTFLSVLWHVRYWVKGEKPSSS
Protocol: as §1, §2

[4] = biological target: T4, T2R receptor SEQ ID NO: 1 (S1) (Homo sapiens, UniProt Q9NYW7)
T4 construct: expressed in transfected cells; host or cells: cells expressing a promiscuous G protein (e.g., G16g44)
T4 sequence (Q9NYW7 1-299): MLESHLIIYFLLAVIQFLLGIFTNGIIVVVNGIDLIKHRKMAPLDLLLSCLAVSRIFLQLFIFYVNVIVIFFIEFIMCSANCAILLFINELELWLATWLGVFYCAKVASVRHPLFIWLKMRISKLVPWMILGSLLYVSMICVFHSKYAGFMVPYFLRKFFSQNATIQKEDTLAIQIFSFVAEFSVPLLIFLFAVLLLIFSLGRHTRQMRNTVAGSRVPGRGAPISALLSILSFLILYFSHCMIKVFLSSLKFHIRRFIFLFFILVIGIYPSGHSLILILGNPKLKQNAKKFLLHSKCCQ
Protocol: as §1, §2

[5] = biological target: T5, T2R receptor SEQ ID NO: 4 (S4) (Homo sapiens, UniProt Q9NYV8)
T5 construct: expressed in transfected cells; host or cells: cells expressing a promiscuous G protein (e.g., G16g44)
T5 sequence (Q9NYV8 1-317): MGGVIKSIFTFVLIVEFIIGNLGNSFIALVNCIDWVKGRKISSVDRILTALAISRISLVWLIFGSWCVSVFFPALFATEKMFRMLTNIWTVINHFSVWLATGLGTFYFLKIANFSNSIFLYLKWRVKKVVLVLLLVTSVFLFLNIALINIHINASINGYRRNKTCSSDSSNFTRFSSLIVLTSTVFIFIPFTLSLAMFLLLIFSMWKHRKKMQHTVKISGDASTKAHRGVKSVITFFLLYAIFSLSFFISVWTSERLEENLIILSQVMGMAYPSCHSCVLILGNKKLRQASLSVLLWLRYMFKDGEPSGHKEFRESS
Protocol: as §1, §2

## CC(=O)Nc1ccc(O)cc1 [Acetaminophen]
[1]
  S5 positive response of T2R receptor to API: + (a “+” to indicate whether a particular T2R receptor showed a positive response to a particular API)

## CCN(CC)CCNC(=O)c1ccc(N)cc1 [Procaineamide]
[2]
  S3 positive response of T2R receptor to API: + (a “+” to indicate whether a particular T2R receptor showed a positive response to a particular API)
[1]
  S5 positive response of T2R receptor to API: + (a “+” to indicate whether a particular T2R receptor showed a positive response to a particular API)
[3]
  S6 positive response of T2R receptor to API: + (a “+” to indicate whether a particular T2R receptor showed a positive response to a particular API)

## CC(CCc1ccccc1)NCC(O)c1ccc(O)c(C(N)=O)c1 (centres unmarked) [Labetalol]
[2]
  S3 positive response of T2R receptor to API: + (a “+” to indicate whether a particular T2R receptor showed a positive response to a particular API)
[1]
  S5 positive response of T2R receptor to API: + (a “+” to indicate whether a particular T2R receptor showed a positive response to a particular API)
[3]
  S6 positive response of T2R receptor to API: + (a “+” to indicate whether a particular T2R receptor showed a positive response to a particular API)

## COc1cc2c(c(OC)c1OC)-c1ccc(OC)c(=O)cc1[C@@H](NC(C)=O)CC2 [Colchicine]
[1]
  S5 positive response of T2R receptor to API: + (a “+” to indicate whether a particular T2R receptor showed a positive response to a particular API)
[3]
  S6 positive response of T2R receptor to API: + (a “+” to indicate whether a particular T2R receptor showed a positive response to a particular API)

## COC(=O)[C@H](c1ccccc1Cl)N1CCc2sccc2C1 [Clopidogrel]
[4]
  S1 positive response of T2R receptor to API: + (a “+” to indicate whether a particular T2R receptor showed a positive response to a particular API)
[2]
  S3 positive response of T2R receptor to API: + (a “+” to indicate whether a particular T2R receptor showed a positive response to a particular API)

## CC(=O)Oc1ccc(C(c2ccc(OC(C)=O)cc2)c2ccccn2)cc1 [Bisacodyl]
[4]
  S1 positive response of T2R receptor to API: + (a “+” to indicate whether a particular T2R receptor showed a positive response to a particular API)
[5]
  S4 positive response of T2R receptor to API: + (a “+” to indicate whether a particular T2R receptor showed a positive response to a particular API)
[3]
  S6 positive response of T2R receptor to API: + (a “+” to indicate whether a particular T2R receptor showed a positive response to a particular API)

## Cc1cc(N)c2ccccc2[n+]1CCCCCCCCCC[n+]1c(C)cc(N)c2ccccc21 [Dequalinium]
[1]
  S5 positive response of T2R receptor to API: + (a “+” to indicate whether a particular T2R receptor showed a positive response to a particular API)
[3]
  S6 positive response of T2R receptor to API: + (a “+” to indicate whether a particular T2R receptor showed a positive response to a particular API)

## CC12CCC(CC1)C(C)(C)O2 [Eucalyptol]
[4]
  S1 positive response of T2R receptor to API: + (a “+” to indicate whether a particular T2R receptor showed a positive response to a particular API)
[5]
  S4 positive response of T2R receptor to API: + (a “+” to indicate whether a particular T2R receptor showed a positive response to a particular API)

## COC(=O)[C@@H]1[C@H]2C[C@H]3c4[nH]c5ccccc5c4CCN3C[C@@H]2CC[C@@H]1O [Yohimbine]
[4]
  S1 positive response of T2R receptor to API: + (a “+” to indicate whether a particular T2R receptor showed a positive response to a particular API)
[2]
  S3 positive response of T2R receptor to API: + (a “+” to indicate whether a particular T2R receptor showed a positive response to a particular API)
[3]
  S6 positive response of T2R receptor to API: + (a “+” to indicate whether a particular T2R receptor showed a positive response to a particular API)

## C=CC[C@@H]1/C=C(\C)C[C@H](C)C[C@H](OC)[C@H]2O[C@@](O)(C(=O)C(=O)N3CCCC[C@H]3C(=O)O[C@H](/C(C)=C/[C@@H]3CC[C@@H](O)[C@H](OC)C3)[C@H](C)[C@@H](O)CC1=O)[C@H](C)C[C@@H]2OC [Fujimycin]
[4]
  S1 positive response of T2R receptor to API: + (a “+” to indicate whether a particular T2R receptor showed a positive response to a particular API)

## COCCCC/C(=N\OCCN)c1ccc(C(F)(F)F)cc1 [Fluvoxamine]
[4]
  S1 positive response of T2R receptor to API: + (a “+” to indicate whether a particular T2R receptor showed a positive response to a particular API)
